The results in this text go back to patent US6291657A (priority 1993, dated 2001).

Assay [1] concerns glycolipid biosynthesis in HL-60 cells. Put plainly: Inhibition of glycolipid biosynthesis in HL-60 cells, [14C]-palmitic acid labelling, 1D-TLC.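 For all read-outs here: cells cultured 24 h with or without test compound, total cellular lipids resolved by one-dimensional TLC and detected by autoradiography, inhibition shown as missing Glc-Cer and gangliosides versus untreated cells.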 In kind it is cell-based, human. Particulars: for minimal effective concentration: Homo sapiens.
The test system of assay [2] is oligosaccharide biosynthesis in HL-60 cells. Put plainly: Glycopeptide analysis by Con A-SEPHAROSE chromatography, HL-60 cells. Format: cell-based, human.
The subject of assay [3] is glycolipid and phospholipid species in HL-60 cells. Put plainly: 2D-TLC analysis of total HL-60 lipids labelled with [14C]-palmitic acid. Format: cell-based, human. Particulars: 2D-TLC (FIG. 2). The method, then: 2D-TLC separation was made of total HL-60 lipids labelled with [^14 C]-palmitic acid. Cells were treated with either 0.5 mM NB-DNJ or NB-DGJ or untreated (UT). Lipids were assigned as follows (untreated cells, lefthand panel, FIG. 2A): 1, gangliosides; 2, lysophospatidylcholine; 3, ceramide phosphorylcholine; 4, ceramide phosphorylethanolamine; 5, phospatidylcholine; 6, phosphatidylinositol; 7, phosphatidylethanolamine; 8, phosphatidylglycerol; 9, diglycosylceramide; 10, monoglycosylceramide; 11, cholesterol/fatty acids/neutral lipids; N and N* are unknowns; and 0 is the sample origin. Following NB-DNJ and NB-DGJ treatment (middle and righthand panels, FIGS. 2B and 2C, respectively) species 1 (gangliosides);9 (diglycosylceramide); 10 (monoglycosylceramide) and N* (unknown) were absent. The radiolabelled lipids were visualized by autoradiography.
HL-60 cells were cultured by conventional procedure as previously described by Platt et al., Eur. J. Biochem. 208, 187-193 (1992). HL-60 cells at 5×10^4 cells/ml were cultured in the presence or absence of imino sugars for 24 hr. For labelling, the two dimensional thin layer chromatography (2D-TLC) conventional method of Butters and Hughes was followed [In Vitro 17, 831-838 (1981)]. Briefly, [^14 C]-palmitic acid (56.8 mCi/mmol, ICN/Flow) was added as a sonicated preparation in foetal calf serum (FCS, Techgen, London, U.K., 0.5 μCi/ml) and the cells cultured for a further 3 days maintaining the imino sugars in the medium. The cells were harvested, washed three times with phosphate buffered saline (PBS), extracted in 1 ml chloroform:methanol (2:1 v/v) and separated by 1 dimensional TLC, loading equal counts (1D-TLC, chloroform:methanol:water (65:25:4)). For two dimensional separations the one dimensional separation was performed as described above, the plate dried overnight under vacuum and separated in the second dimension using a solvent of tetrahydrofuran: dimethoxymethane:methanol:water (10:6:4:1). Plates were air dried and exposed to Hyperfilm-MP high performance autoradiography film (Amersham).

For assay [4], the system named is cholera toxin binding sites on H9 cells. Format: cell-based, human.
Another assay has as its system α-glucosidase I and II. Put plainly: Inhibition of purified processing α-glucosidase I and II. In kind it is biochemical. The note with it: for inhibition of processing α-glucosidases I and II / N-linked oligosaccharide processing: in words. The method, then: Porcine liver α-glucosidase I and rat liver α-glucosidase II were purified to homogeneity and assayed by conventional procedure using a [^14 C]-glucose labelled Glc3 Man9 GlcNAc2 substrate as previously described by Karlsson et al., J. Biol. Chem. 268, 570-576 (1993).
Enzymes were assayed according to procedure described hereinbefore using
The data from FIG. 8 were […]

Assay [5] relates to Glc-Cer accumulation in WEHI-3B murine macrophage cells. Put plainly: In vitro Gaucher's disease model: CBE induced glycolipid storage in WEHI-3B cells, 1D-TLC. In kind it is cell-based. Particulars: for prevention of glycolipid storage in in vitro Gaucher's disease model (in words): CBE. As for the experimental part:
In this model, the murine macrophage cell line WEHI-3B was cultured in the presence of an irreversible glucocerebrosidase inhibitor, conduritol β epoxide (CBE), to mimic the inherited disorder found in Gaucher's disease. WEHI-3B cells are well-known, widely distributed and readily available murine macrophage cells. They are described in Cancer Res. 37, 546-550 (1977), and are readily available from the American Type Culture Collection, Rockville, Md, under accession number ATCC TIB 68. The compounds of the invention prevent lysosomal glycolipid storage which is useful for the management of Gaucher's disease and other glycolipid storage disorders as illustrated hereinafter in Table 3. Gaucher's disease is an autosomal recessive disorder characterized by an impaired ability to degrade glucocerebroside (glucosyl ceramide, Glc-Cer) due to mutations in the gene encoding β-glucocerebrosidase (β-D-glucosyl-N-acylsphingosine glucohydrolase, EC 3.2.1.45). This defect results in the lysosomal accumulation of Glc-Cer in cells of the macrophage-monocyte system [Barranger and Ginns, in The Metabolic Basis of Inherited Diseases, ed. Scriver et al., pp. 1677-1698, McGraw-Hill, New York, (1989); Beutler, Science 256, 794-799 (1992)]. By slowing the rate of glycolipid synthesis, the impaired catabolism of Glc-Cer can be offset, thereby leading to the maintenance of a balanced level of Glc-Cer.
FIGS. 5 and 6 show the analysis of NB-DNJ and NB-DGJ in an in vitro Gaucher's disease model.
The in vitro Gaucher's disease model was prepared as follows: WEHI-3B cells (American Type Culture Collection, Rockville, Md., U.S.A.) were maintained in logarithmic phase growth for 14 days in RPMI-1640 medium, 10% FCS, in the presence or absence of 50 μM conduritol β epoxide (CBE, Toronto Research Chemicals, Downsview, Canada) with or without NB-DNJ or NB-DGJ. Cells were passaged every 3 days and compound concentrations maintained throughout. Equal cell numbers (5×10^6) were harvested, extracted in 1 ml chloroform: methanol (2:1 v/v) overnight at 4° C., the extracts centrifuged, the chloroform:methanol extract retained and the pellet re-extracted as above for 2 hr. at room temperature. Pooled extracts were dried under nitrogen, re-dissolved in 10 μl chloroform:methanol (2:1 v/v) and separated by 1D-TLC in chloroform:methanol:water […]. Plates were air dried and visualized using α-naphthol (1% w/v in methanol) followed by 50% (v/v) sulphuric acid.

Structures are written as SMILES. “Also recorded” adds a separate entry of the source. Where two headings read alike, the source gives them in different places.

As usually defined, the IC50 is the concentration that gives 50% inhibition. Take `CCCCN1C[C@H](O)[C@@H](O)[C@@H](O)[C@H]1CO` [NB-DGJ, N-butyl deoxygalactonojirimycin]: the “lipid species whose biosynthesis was inhibited” value in assay [1] (HL-60, 500 μM, 1D-TLC) is “inhibited the biosynthesis of Glc-Cer, gangliosides and an unknown lipid species”. In assay [1] (HL-60, 500 μM, 1D-TLC (FIG. 1)), the “inhibition of glycolipid biosynthesis” value was “specifically inhibited glycolipid biosynthesis”. The “effect of N-alkyl chain length on inhibition of glycolipid biosynthesis (loss of detectable Glc-Cer)” value in assay [1] (HL-60, 0.5 mM, 1D-TLC (FIG. 4), listed as N-butyl DGJ) is “completely prevented glycolipid biosynthesis; also recorded: completely inhibited glycolipid biosynthesis”. Further, the minimal effective concentration in assay [1] (HL-60, relatively low concentration, read-out: concentration inhibitory of glycolipid biosynthesis) was about 50 µM; in assay [1] (HL-60, 1D-TLC (FIG. 3), partial inhibition, read-out: concentrations as low as which partial inhibition occurred), 0.5 to 5 µM; in assay [5] (Mus musculus, WEHI3B, 336 h, 50 μM CBE, 14 days (FIG. 5), read-out: dose range preventing CBE induced glycolipid storage), 5 to 50 µM. Besides, the “Total 3H-mannose recovered” value in assay [2] (HL-60) was found to be 844322 cpm. Further, in assay [2] (HL-60, percentage of radiolabelled glycopeptides eluted with 10 mM methylglucoside), the Bi-antennary was 17.7%. The “Oligo-mannose & hybrid” value in assay [2] (HL-60, percentage of radiolabelled glycopeptides eluted with 500 mM methylmannoside) is listed as 54.2%. In assay [2] (HL-60, percentage of radiolabelled glycopeptides non-bound), the “Tetra- & Tri-antennary” value was determined as 28.1%. Besides, the “glycopeptide profile by Con A-SEPHAROSE chromatography” value in assay [2] (HL-60 and BW5147) is listed as “unchanged glycopeptide profile”. Moreover, the “gangliosides, unknown lipid (N*), mono and dihexaside species following treatment” value in assay [3] (HL-60, 0.5 mM) was “absent”. Moreover, the “depletion of glycolipid species” value in assay [3] (HL-60, 500 μM) was “total depletion of glycolipid species”. Moreover, the cholera toxin binding entry in assay [4] is on record as “reduction of the binding of cholera toxin”. In addition, the “reduction in cholera toxin binding” value in assay [4] (h9 cells, 4320 min) is on record as “approximately 70%”. The “inhibition of processing α-glucosidases I and II / N-linked oligosaccharide processing” value in the assay with α-glucosidase I and II was “does not inhibit N-linked oligosaccharide processing”; with α-glucosidase I and II (listed as N-butyl DGJ) it was “does not inhibit”. The IC50 on α-glucosidase I and II (mixture of purified α-glucosidases I and II) came to 2.13 mM. The “prevention of glycolipid storage in in vitro Gaucher's disease model (in words)” value in assay [5] is listed as “as effective as NB-DNJ”; in assay [5] (listed as N-butyl DGJ), “offset glucoceramide accumulation”.
